Assay results as given in patent US10883981B2, “Fluorescent fusion polypeptide, encoding nucleic acid, and cell comprising said polypeptide” (priority 2012, dated 2021).
In brackets after ≈: the same amount, converted by molar mass.

What was measured:
[1] = test system: U2OS stably expressing fluorescent DAG biosensor; assay: DAG biosensor fluorescence redistribution (internalization) assay
Description: Cellular distribution of DAG biosensor stimulated cells. […] DAG biosensor activity was determined measuring the generation of the vesicle using image analysis algorithms.
As with the previous examples, in order to assess whether the activation of the above mentioned polypeptide induces intracellular fluorescence redistribution in living cells, peptide turboGFP was cloned as the fluorescent peptide and the cellular localization of the biosensor was analysed upon diacylglycerol induced activation. In this sense, U2O2 cell line was stably transfected with the plasmid construction that contains the above mentioned biosensor's coding sequence. […] As with the previous examples, activity was calculated as an increment of granularity by treating these cells with increasing dosages of PMA.

[2] = test system: HEK293 and U2O2 cells stably transfected with calcium biosensor; assay: Calcium biosensor cellular localization upon calcium induced activation; assay type: cell-based; settings: 10 ng/ml of PMA and 1 uM of ionomycin applied together
Description: After transfection, both cell lines presented a membrane distribution of the fluorescence.

[3] = biological target: human Tachykinin receptor 1 (Neurokinin 1 receptor) (Homo sapiens, UniProt P25103); settings: 10 uM, 6 hours, U2OS expressing human Neurokinin receptor 1 and calcium biosensor
human Tachykinin receptor 1 (Neurokinin 1 receptor), sequence (P25103 whole entry): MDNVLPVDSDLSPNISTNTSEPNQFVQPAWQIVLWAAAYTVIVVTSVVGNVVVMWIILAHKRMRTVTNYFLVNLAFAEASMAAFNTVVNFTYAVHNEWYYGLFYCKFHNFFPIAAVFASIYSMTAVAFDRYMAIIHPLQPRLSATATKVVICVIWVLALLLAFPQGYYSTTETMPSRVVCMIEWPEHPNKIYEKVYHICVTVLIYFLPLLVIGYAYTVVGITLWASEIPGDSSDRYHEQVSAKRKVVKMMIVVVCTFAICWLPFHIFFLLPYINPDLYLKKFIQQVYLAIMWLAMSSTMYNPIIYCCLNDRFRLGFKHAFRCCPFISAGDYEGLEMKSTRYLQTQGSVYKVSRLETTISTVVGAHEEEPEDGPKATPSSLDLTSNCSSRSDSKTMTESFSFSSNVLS
Description: Secondly, in order to determine whether calcium induces a significant conformational change within a physiological dynamic range, the U2O2 biosensor stable cell line was stably transfected with the human Tachykinin receptor 1.
The double stable cell line was seeded at 20,000 cells per well on 96-mm optical plates, and cultured in 200 ul of DMEM F12 supplemented with 10% fetal bovine serum. For fluorescent biosensor redistribution, cells were stimulated with different concentrations of the agonist Substancia P during 6 hours. After treatment, the nucleus was stained with DAPI and biosensor fluorescence redistribution was detected by fluorescence using image analysis algorithms. […] The activity was calculated as an increment of the granularity of these cells. Cells were treated with 11 log dilution series (n=5).

CC(C)NCC(O)c1ccc(O)c(O)c1 (centres unmarked) [Isoproterenol]
EC50 ([1]; Homo sapiens, U2OS, 4 h, read-out: Ec50, biosensor redistribution (increment of granularity)): 0.000289 ng/mL (≈ 0.00137 nM)

CCCCCCCCCCCCCC(=O)O[C@@H]1[C@@H](C)[C@@]2(O)[C@@H](C=C(CO)C[C@]3(O)C(=O)C(C)=C[C@@H]23)[C@@H]2C(C)(C)[C@]12OC(C)=O [PMA]
Membrane distribution of calcium biosensor after raising intracellular calcium [2]: substantial decrease in membrane distribution | Cellular distribution of fluorescent DAG biosensor after treatment ([1]; 25 ng/ml, 4 hours, U2OS expressing DAG biosensor): internalized in vesicles in the citosol

C[C@H](CCC(=O)O)C[C@H](C)C[C@H](C)C(=O)/C=C(\O)[C@H](C)C[C@H](C)C/C=C/[C@@H](C)[C@@H](O)[C@@H](C)[C@@H](O)C[C@@H]1CC[C@@](C)([C@H]2CC[C@@](C)([C@@H](C)O)O2)O1 [ionomycin]
Membrane distribution of calcium biosensor after raising intracellular calcium [2]: substantial decrease in membrane distribution

Substance P
Cellular distribution of fluorescent calcium biosensor after treatment [3]: internalized in vesicles in the citosol
